In patent US20090196912A1, “Pyridinylamines” (GPC Botech AG, priority 2004, published 2009):

Target: Abl (Homo sapiens, UniProt P00519)
Assay: Generic kinase assay (33P-ATP, Myelin Basic Protein)
Type: biochemical
Details: 1 h; class symbol: % inhibition at 10 μM or IC50; read-out: Inhibitory effect on target Abl
Experimental: (§1) In order to determine the inhibitory effect of the compounds of the subject invention on various target enzymes a generic kinase assay was established.
(§2) Reactions were performed in 96-Well U-bottom microtiter plates (Greiner Bio-One; Frickenhausen/Germany, Cat. No. 650161), hereinafter designated “Assay Plates”. 10 μl of a solution comprising 40 μM Myelin Basic Protein (Invitrogen; Carlsbad, Calif./USA; Cat. No. 13228-010) and 4 μM ATP in three-fold concentrated Reaction Buffer (60 mM Tris-HCl, pH 7.5; 30 mM MgCl2; 3 mM dithiothreitol) were added into each well of the Assay Plate. 10 μl of serial dilutions of the compounds of the subject invention, dissolved in 4% DMSO, were then added into each well, except for Positive Control. Wells (C+ wells) and Negative Control Wells (C− wells). 10 μl of 4% DMSO without compounds were added to C+ and C− wells. 10 μl of a 500 mM solution of EDTA in water was then added to C− wells. Then 10 μl of a solution containing 50 μCi/ml Adenosine 5′-[γ-^33P]triphosphate in water was added to each well. To start the reaction 10 μl of the kinase to be assayed was added to each well. The optimal amount of kinase in the assay was determined to be the amount which yields to a turn-over of about 10% of ATP. Assay Plates were incubated for one hour at room temperature. Then 10 μl of a 500 mM solution of EDTA in water was added to each well except C− wells. Samples were now ready for measurement.
(§3) Measurements were preformed in 96-Well MAPH-Filter Plates (Millipore; Billerica, Mass./United States; Cat. No. MAPHNOB50), hereinafter designated “Measurement Plates”. Measurement Plates were washed with 200 μl of a 0.75% H3PO4 solution per well. The H3PO4 solution was exhausted using a Millipore vacuum station. 60 μl of a 0.75% H3PO4 solution was then added into each well, followed by the transfer of 30 μl of each well from the Assay Plate into the corresponding wells of the Measurement Plate. The Measurement Plate was incubated for 30 minutes at room temperature. Thereafter each well was washed three times with 200 μl of a 0.75% H3PO4 solution using a Millipore vacuum station. 20 μl of scintillation liquid (Supermix Liquid Szintillator; Perkin Elmer, Wellesley. Mass./United States; Cat. No. 1200-439) was then added to each well of the Measurement Plate. The plate was sealed and stored for 30 minutes in the darkness before radioactivity was quantified in a MicroBeta Scintillation Counter (Perkin Elmer, Wellesley. Mass./United States).

Sequence of Abl (P00519 whole entry, species assumed): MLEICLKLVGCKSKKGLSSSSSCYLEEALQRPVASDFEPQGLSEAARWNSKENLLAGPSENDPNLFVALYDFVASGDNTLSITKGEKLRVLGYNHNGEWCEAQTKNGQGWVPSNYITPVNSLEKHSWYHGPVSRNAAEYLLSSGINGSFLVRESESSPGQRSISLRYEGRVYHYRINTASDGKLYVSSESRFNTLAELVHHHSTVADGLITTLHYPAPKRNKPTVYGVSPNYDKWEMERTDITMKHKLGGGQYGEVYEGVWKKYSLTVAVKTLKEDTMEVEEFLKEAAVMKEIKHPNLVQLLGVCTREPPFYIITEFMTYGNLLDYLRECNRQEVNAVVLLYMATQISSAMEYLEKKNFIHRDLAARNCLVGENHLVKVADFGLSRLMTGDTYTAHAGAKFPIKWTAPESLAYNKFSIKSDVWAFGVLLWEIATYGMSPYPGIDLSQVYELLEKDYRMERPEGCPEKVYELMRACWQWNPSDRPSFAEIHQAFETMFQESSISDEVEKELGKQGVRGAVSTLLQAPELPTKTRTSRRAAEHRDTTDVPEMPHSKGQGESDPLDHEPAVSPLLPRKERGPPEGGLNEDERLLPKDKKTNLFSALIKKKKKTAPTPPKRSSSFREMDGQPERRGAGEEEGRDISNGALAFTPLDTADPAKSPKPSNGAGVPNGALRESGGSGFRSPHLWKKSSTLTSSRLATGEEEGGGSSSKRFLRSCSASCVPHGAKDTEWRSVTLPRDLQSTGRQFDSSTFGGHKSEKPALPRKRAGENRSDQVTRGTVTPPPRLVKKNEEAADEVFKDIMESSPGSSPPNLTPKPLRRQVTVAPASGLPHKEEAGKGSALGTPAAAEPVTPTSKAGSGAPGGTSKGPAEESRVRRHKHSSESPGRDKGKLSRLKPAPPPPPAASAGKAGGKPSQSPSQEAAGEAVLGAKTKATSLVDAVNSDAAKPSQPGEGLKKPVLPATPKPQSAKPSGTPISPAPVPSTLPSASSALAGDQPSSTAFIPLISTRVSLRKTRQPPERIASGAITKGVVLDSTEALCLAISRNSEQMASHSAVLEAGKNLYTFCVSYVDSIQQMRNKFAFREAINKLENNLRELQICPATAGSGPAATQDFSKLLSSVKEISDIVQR

| inhibition at 10 µM [%] | Structure (SMILES) |
| --- | --- |
| 50 to 90 | COc1cccc(-c2cncc(NCc3cccc(O)c3)c2)c1 [Compound 239, 3-{[5-(3-Methoxy-phenyl)-pyridin-3-ylamino]-methyl}-phenol] |
| 50 to 90 | CC(=O)Nc1cccc(-c2cncc(NCc3cccc(O)c3)c2)c1 [Compound 221, N-{3-[5-(3-Hydroxy-benzylamino)-pyridin-3-yl]-phenyl}-acetamide] |

Target: CDK1/CyclinB (Homo sapiens, UniProt P06493)
Assay: as above
Type: biochemical
Details: class symbol: % inhibition at 10 μM or IC50
Experimental: as §1, §2, §3

| Structure (SMILES) | Inhibitory effect on target CDK1/CyclinB |
| --- | --- |
| COc1cccc(-c2cncc(NCc3cccc(O)c3)c2)c1 [Compound 239, 3-{[5-(3-Methoxy-phenyl)-pyridin-3-ylamino]-methyl}-phenol] | B (B: >90% inhibition at 10 μM enzyme concentration) |

Target: CDK2/CyclinA (Homo sapiens, UniProt P24941)
Assay: as above
Type: biochemical
Details: class symbol: % inhibition at 10 μM or IC50
Experimental: as §1, §2, §3

| Inhibitory effect on target CDK2/CyclinA | Structure (SMILES) |
| --- | --- |
| C (C: IC50 measured: <1 μM) | COc1cccc(-c2cncc(NCc3cccc(O)c3)c2)c1 [Compound 239, 3-{[5-(3-Methoxy-phenyl)-pyridin-3-ylamino]-methyl}-phenol] |

Target: CDK5/p35 (Homo sapiens, UniProt Q00535)
Assay: as above
Type: biochemical
Details: class symbol: % inhibition at 10 μM or IC50
Experimental: as §1, §2, §3

| Structure (SMILES) | Inhibitory effect on target CDK5/p35 |
| --- | --- |
| COc1cccc(-c2cncc(NCc3cccc(O)c3)c2)c1 [Compound 239, 3-{[5-(3-Methoxy-phenyl)-pyridin-3-ylamino]-methyl}-phenol] | A (A: 50-90% inhibition at 10 μM enzyme concentration) |

Target: EGFR (Homo sapiens, UniProt P00533)
Sequence (P00533 25-1210, species assumed): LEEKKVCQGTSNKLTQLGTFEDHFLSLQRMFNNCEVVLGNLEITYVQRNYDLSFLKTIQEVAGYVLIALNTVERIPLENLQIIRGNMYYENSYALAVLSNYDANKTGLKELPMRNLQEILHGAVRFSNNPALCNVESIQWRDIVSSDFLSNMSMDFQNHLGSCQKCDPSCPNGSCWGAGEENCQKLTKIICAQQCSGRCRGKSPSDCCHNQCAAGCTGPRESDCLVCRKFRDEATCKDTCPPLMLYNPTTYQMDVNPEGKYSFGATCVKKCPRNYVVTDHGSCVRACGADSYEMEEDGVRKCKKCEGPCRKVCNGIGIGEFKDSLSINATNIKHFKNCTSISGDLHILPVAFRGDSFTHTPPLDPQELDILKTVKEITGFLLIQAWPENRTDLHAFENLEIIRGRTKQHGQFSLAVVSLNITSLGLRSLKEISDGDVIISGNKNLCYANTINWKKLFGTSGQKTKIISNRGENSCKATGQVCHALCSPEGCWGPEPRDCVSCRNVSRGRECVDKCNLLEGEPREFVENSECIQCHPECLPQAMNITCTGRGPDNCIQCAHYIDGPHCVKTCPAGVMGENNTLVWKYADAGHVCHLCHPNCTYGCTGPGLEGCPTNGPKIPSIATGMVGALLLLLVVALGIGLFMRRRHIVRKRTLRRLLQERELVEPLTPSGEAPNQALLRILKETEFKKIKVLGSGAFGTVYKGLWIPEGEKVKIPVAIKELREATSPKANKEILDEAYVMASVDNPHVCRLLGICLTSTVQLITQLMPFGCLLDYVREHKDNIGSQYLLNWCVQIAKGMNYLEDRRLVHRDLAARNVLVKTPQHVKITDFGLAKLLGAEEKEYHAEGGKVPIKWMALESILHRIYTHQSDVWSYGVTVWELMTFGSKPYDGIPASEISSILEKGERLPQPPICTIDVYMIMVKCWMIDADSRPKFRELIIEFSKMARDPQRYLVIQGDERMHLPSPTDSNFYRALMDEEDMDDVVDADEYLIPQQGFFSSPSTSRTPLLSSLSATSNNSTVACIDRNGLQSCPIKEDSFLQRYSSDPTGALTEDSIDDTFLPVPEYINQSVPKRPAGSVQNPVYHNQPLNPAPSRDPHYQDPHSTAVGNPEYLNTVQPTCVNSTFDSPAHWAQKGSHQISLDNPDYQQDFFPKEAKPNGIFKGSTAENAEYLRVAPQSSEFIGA
Assay: as above
Type: biochemical
Details: class symbol: % inhibition at 10 μM or IC50
Experimental: as §1, §2, §3

| Structure (SMILES) | Inhibitory effect on target EGFR |
| --- | --- |
| COc1cccc(-c2cncc(NCc3cccc(O)c3)c2)c1 [Compound 239, 3-{[5-(3-Methoxy-phenyl)-pyridin-3-ylamino]-methyl}-phenol] | A (A: 50-90% inhibition at 10 μM enzyme concentration) |
| CC(=O)Nc1cccc(-c2cncc(NCc3cccc(O)c3)c2)c1 [Compound 221, N-{3-[5-(3-Hydroxy-benzylamino)-pyridin-3-yl]-phenyl}-acetamide] | A (A: 50-90% inhibition at 10 μM enzyme concentration) |

System: PDGFR
Assay: as above
Type: biochemical
Details: class symbol: % inhibition at 10 μM or IC50
Experimental: as §1, §2, §3

| Structure (SMILES) | Inhibitory effect on target PDGFR |
| --- | --- |
| COc1cccc(-c2cncc(NCc3cccc(O)c3)c2)c1 [Compound 239, 3-{[5-(3-Methoxy-phenyl)-pyridin-3-ylamino]-methyl}-phenol] | B (B: >90% inhibition at 10 μM enzyme concentration) |
| CC(=O)Nc1cccc(-c2cncc(NCc3cccc(O)c3)c2)c1 [Compound 221, N-{3-[5-(3-Hydroxy-benzylamino)-pyridin-3-yl]-phenyl}-acetamide] | A (A: 50-90% inhibition at 10 μM enzyme concentration) |

Target: RICK (Homo sapiens, UniProt O43353)
Sequence (O43353 whole entry, species assumed): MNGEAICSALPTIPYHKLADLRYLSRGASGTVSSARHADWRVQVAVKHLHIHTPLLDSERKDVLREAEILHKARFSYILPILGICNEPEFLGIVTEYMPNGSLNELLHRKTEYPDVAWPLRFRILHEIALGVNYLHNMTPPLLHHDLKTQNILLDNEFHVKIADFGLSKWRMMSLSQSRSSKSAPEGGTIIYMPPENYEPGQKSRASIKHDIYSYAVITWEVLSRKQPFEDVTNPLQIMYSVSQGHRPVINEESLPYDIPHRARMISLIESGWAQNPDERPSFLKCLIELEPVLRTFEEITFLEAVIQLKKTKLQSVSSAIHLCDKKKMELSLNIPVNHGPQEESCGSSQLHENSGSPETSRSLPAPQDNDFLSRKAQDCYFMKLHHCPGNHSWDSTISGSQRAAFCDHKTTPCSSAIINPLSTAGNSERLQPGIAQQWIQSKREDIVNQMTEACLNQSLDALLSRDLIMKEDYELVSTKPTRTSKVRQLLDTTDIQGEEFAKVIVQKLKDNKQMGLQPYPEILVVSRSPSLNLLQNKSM
Assay: as above
Type: biochemical
Details: class symbol: % inhibition at 10 μM or IC50
Experimental: as §1, §2, §3

| Inhibitory effect on target RICK | Structure (SMILES) |
| --- | --- |
| C (C: IC50 measured: <1 μM) | COc1cccc(-c2cncc(NCc3cccc(O)c3)c2)c1 [Compound 239, 3-{[5-(3-Methoxy-phenyl)-pyridin-3-ylamino]-methyl}-phenol] |
| C (C: IC50 measured: <1 μM) | CC(=O)Nc1cccc(-c2cncc(NCc3cccc(O)c3)c2)c1 [Compound 221, N-{3-[5-(3-Hydroxy-benzylamino)-pyridin-3-yl]-phenyl}-acetamide] |

Target: ROCK 2 (Homo sapiens, UniProt O75116)
Assay: as above
Type: biochemical
Details: 1 h; class symbol: % inhibition at 10 μM or IC50; read-out: Inhibitory effect on target ROCK 2
Experimental: as §1, §2, §3

| inhibition at 10 µM [%] | Structure (SMILES) |
| --- | --- |
| 50 to 90 | COc1cccc(-c2cncc(NCc3cccc(O)c3)c2)c1 [Compound 239, 3-{[5-(3-Methoxy-phenyl)-pyridin-3-ylamino]-methyl}-phenol] |

Target: c-Src (Homo sapiens, UniProt P12931)
Sequence (P12931 whole entry, species assumed): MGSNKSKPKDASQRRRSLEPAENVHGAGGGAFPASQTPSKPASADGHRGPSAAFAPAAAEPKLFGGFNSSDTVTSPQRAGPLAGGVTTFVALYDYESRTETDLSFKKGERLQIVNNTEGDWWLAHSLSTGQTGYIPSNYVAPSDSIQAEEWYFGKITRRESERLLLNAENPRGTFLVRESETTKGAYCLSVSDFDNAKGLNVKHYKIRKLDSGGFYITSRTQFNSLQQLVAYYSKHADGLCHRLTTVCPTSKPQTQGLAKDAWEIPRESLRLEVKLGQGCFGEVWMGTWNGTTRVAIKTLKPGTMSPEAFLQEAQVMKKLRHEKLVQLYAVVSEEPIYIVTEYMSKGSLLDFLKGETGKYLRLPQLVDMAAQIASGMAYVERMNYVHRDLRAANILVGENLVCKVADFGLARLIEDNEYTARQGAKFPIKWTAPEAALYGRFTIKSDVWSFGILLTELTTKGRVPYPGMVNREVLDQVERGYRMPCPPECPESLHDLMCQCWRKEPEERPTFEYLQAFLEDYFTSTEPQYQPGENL
Assay: as above
Type: biochemical
Details: class symbol: % inhibition at 10 μM or IC50
Experimental: as §1, §2, §3

| Structure (SMILES) | Inhibitory effect on target c-Src |
| --- | --- |
| COc1cccc(-c2cncc(NCc3cccc(O)c3)c2)c1 [Compound 239, 3-{[5-(3-Methoxy-phenyl)-pyridin-3-ylamino]-methyl}-phenol] | B (B: >90% inhibition at 10 μM enzyme concentration) |

Target: c-kit (Homo sapiens, UniProt P10721)
Assay: as above
Type: biochemical
Details: 1 h; class symbol: % inhibition at 10 μM or IC50; read-out: Inhibitory effect on target c-kit
Experimental: as §1, §2, §3

| inhibition at 10 µM [%] | Structure (SMILES) |
| --- | --- |
| > 90 | CC(=O)Nc1cccc(-c2cncc(NCc3cccc(O)c3)c2)c1 [Compound 221, N-{3-[5-(3-Hydroxy-benzylamino)-pyridin-3-yl]-phenyl}-acetamide] |

Target: cRaf (Homo sapiens, UniProt P04049)
Sequence (P04049 whole entry, species assumed): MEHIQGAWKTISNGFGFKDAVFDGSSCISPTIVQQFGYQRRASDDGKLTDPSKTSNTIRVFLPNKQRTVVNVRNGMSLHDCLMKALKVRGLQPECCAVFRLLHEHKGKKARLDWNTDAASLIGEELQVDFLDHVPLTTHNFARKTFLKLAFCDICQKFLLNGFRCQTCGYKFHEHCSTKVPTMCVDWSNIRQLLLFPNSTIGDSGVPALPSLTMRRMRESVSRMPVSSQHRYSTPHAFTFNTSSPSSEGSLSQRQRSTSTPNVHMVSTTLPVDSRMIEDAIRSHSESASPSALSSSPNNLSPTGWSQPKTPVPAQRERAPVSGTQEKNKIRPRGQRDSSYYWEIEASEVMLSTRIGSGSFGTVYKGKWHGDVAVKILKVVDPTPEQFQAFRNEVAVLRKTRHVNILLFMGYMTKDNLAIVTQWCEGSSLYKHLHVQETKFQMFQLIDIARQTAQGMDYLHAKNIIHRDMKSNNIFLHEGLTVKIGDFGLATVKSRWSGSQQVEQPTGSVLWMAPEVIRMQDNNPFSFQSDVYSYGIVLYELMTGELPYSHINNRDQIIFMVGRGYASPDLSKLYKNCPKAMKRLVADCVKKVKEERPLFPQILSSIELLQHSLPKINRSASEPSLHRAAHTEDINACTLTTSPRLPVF
Assay: as above
Type: biochemical
Details: 1 h; class symbol: % inhibition at 10 μM or IC50; read-out: Inhibitory effect on target cRaf
Experimental: as §1, §2, §3

| inhibition at 10 µM [%] | Structure (SMILES) |
| --- | --- |
| 50 to 90 | COc1cccc(-c2cncc(NCc3cccc(O)c3)c2)c1 [Compound 239, 3-{[5-(3-Methoxy-phenyl)-pyridin-3-ylamino]-methyl}-phenol] |
| 50 to 90 | CC(=O)Nc1cccc(-c2cncc(NCc3cccc(O)c3)c2)c1 [Compound 221, N-{3-[5-(3-Hydroxy-benzylamino)-pyridin-3-yl]-phenyl}-acetamide] |

Target: p38 (Homo sapiens, UniProt Q16539)
Sequence (Q16539 whole entry): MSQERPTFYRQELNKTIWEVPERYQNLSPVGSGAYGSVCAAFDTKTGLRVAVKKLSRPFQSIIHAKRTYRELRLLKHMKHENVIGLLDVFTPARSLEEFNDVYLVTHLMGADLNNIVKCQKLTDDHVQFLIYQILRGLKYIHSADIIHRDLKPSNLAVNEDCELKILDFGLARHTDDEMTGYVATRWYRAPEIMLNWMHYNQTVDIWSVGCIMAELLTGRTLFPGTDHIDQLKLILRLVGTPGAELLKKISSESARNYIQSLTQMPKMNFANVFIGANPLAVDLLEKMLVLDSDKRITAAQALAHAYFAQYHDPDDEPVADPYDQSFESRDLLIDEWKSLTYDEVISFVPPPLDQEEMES
Assay: as above
Type: biochemical
Details: class symbol: % inhibition at 10 μM or IC50
Experimental: as §1, §2, §3

| Structure (SMILES) | Inhibitory effect on target p38 |
| --- | --- |
| CC(=O)Nc1cccc(-c2cncc(NCc3cccc(O)c3)c2)c1 [Compound 221, N-{3-[5-(3-Hydroxy-benzylamino)-pyridin-3-yl]-phenyl}-acetamide] | A (A: 50-90% inhibition at 10 μM enzyme concentration) |

Target: p56Lck (Homo sapiens, UniProt P06239)
Sequence (P06239 whole entry, species assumed): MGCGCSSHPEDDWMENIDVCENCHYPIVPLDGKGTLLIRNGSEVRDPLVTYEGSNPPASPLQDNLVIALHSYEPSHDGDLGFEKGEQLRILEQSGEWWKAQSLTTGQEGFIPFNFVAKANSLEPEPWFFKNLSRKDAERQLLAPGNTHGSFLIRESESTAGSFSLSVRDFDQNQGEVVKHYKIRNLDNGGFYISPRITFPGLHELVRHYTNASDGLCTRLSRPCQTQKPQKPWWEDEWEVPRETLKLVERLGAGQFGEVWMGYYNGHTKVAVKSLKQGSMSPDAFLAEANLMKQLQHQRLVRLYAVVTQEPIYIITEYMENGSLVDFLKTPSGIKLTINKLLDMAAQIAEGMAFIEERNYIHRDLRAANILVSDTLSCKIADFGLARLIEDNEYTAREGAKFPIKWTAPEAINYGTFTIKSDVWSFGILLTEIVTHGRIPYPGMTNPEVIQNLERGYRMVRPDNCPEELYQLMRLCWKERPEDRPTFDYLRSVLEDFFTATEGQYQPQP
Assay: as above
Type: biochemical
Details: 1 h; class symbol: % inhibition at 10 μM or IC50; read-out: Inhibitory effect on target p56Lck
Experimental: as §1, §2, §3

| inhibition at 10 µM [%] | Structure (SMILES) |
| --- | --- |
| 50 to 90 | COc1cccc(-c2cncc(NCc3cccc(O)c3)c2)c1 [Compound 239, 3-{[5-(3-Methoxy-phenyl)-pyridin-3-ylamino]-methyl}-phenol] |
| > 90 | CC(=O)Nc1cccc(-c2cncc(NCc3cccc(O)c3)c2)c1 [Compound 221, N-{3-[5-(3-Hydroxy-benzylamino)-pyridin-3-yl]-phenyl}-acetamide] |
